Reference: US7842683B2, “Neurotherapeutic compositions and method” (Revaax Pharmaceuticals, LLC, priority 1999, dated 2010)

Legend:
Male Wistar rats = assay: Elevated plus-maze (anxiolytic activity); format: in vivo, rat
Description: (§1) The elevated plus-maze was developed for the detection of anxiolytic and anxiogenic drug effects in the rat (Pellow et al., 1985). The method has been validated behaviorally, physiologically, and pharmacologically. The plus-maze consists of two open arms and two enclosed arms. […] Conversely, anxiogenic compounds like yohimbin or amphetamines reduce open arm entries and time spent in the open arms.
Male Wistar rats weighing 250-300 g were group housed in a normal 12:12 light-dark cycle light on at 0800 hr and provide food and water ad libitum. The plus-maze consisted of two open arms, 50×10 cm, and two enclosed arms 50×10×40 cm with an open roof, arranged such that the two open arms were opposite to each other. The maze was elevated to a height of 50 cm.
Eight animals were tested in the plus-maze 90 min following IP injection with 50 μg/kg Mox and saline vehicle. The order of treatments was counter balanced with at least 48 hrs between injections. At the start of the experiment the animal was place in the center of the plus maze facing the closed arm. Over a five min observation period, animals were scored for the latency to enter the closed arm, time spent in the closed arm and the number of open arm entries following the first occupation of the closed arm (FIG. 7).
Because Mox and CDP have different bioavailability profiles, e.g. brain penetrance, their CNS activity could not be compared by giving systemic injections of equimolar concentrations of each drug. Instead it was necessary to give both drugs directly into the cerebroventricular system to by pass the blood brain barrier. Animals were anesthetized with sodium pentobarbital (50 mg/kg), implanted with microinjection guide cannulae aimed at the lateral ventricle and allowed to recover for two days before testing. To groups of six animals each were tested with Mox or CDP. Each animals received a injection of drug and 0.9% NaCl vehicle on two separate days. The order of injections was counterbalanced and separated by two days. Both Mox and CDP were prepared in 0.9% NaCl at a concentration of 1 mM. All injections were given in a volume of 2 ul over 10 secs in fully conscious, restrained animals. Sixty min later animals were tested in the plus-maze for a 3 min observation period and scored for behaviors as noted previously.
as §1, with “screening” for “the detection of”
Male Wistar rats weighing 250-300 g were group housed in a normal 12:12 light-dark cycle with light on at 0800 hr and provided food and water ad libitum. The plus-maze consisted of two open arms, 50 cm long, 10 cm wide, with walls 40 cm high made of clear Plexiglas. The two closed arms had the same dimensions but included a roof. The Plexiglas for the closed arms was painted black. Each pair of arms was arranged opposite to each other to form the plus-maze. The maze was elevated to a height of 50 cm. Eighteen animals were tested in the plus-maze 90 min following the IP injection of 1.0 μg/kg CLAV, 50 or vehicle control in a volume of ca. 0.3 ml. The order of treatments was counter balanced with at least 48 hrs between injections. At the start of the experiment, the animal was placed at the end of one of the open arms. Over a five min observation period, animals were scored for the latency to enter the closed arm, time spent in the closed arm and the number of open arm entries following the first occupation of the closed arm. The study produced tables of repeated measures. The data between treatments were compared with a two-way, repeated measures ANOVA followed by Bonferroni post hoc tests. […]

male golden hamsters = assay: Resident/intruder paradigm of offensive aggression; format: in vivo, Syrian golden hamsters (Mesocricetus auratus)
Experimental: Male Syrian golden hamsters (Mesocricetus auratus) (140-150 g) obtained from Harlan Sprague-Dawley Laboratories (Indianapolis, Ind.) were housed individually in Plexiglas cages (24 cm×24 cm×20 cm), maintained on a reverse light:dark cycle (14L:10D; lights on at 19:00 hr) and provided food and water ad libitum. Animals were acclimated to the reverse light:dark cycle for at least two weeks before testing. All behavioral tests were conducted during the dark phase of the circadian cycle. All animals were acquired and cared for in accordance with the guidelines published in the Guide for the Care and Use of Laboratory Animals (National Institutes of Health Publications No. 85-23, Revised 1985).
(§2) Agonistic behavior can be classified as either offensive or defensive aggression (Blanchard and Blanchard, 1977; Adams, […]; Albert and Walsh, 1984). Offensive aggression is characterized by the aggressor initiating an attack on an opponent, while defensive aggression lacks active approach. Both types of aggression have their own unique neurobehavioral systems. The stimuli that elicit offensive and defense attack are different, as are the sequences of behaviors that accompany each agonistic response. […] Offensive aggression is easily studied using male golden hamsters tested in a resident/intruder paradigm, an established model of offensive aggression (Ferris and Potegal 1988). Placing an unfamiliar male hamster into the home cage of another male hamster elicits a well-defined sequence of agonistic behaviors from the resident that includes offensive aggression.
(§3) Hamsters are nocturnal and as such all behavioral tests were performed during the first four hrs of the dark phase under dim red illumination. The resident was scored for offensive aggression, e.g., latency to bite the intruder, the total number of bites, total contact time with the intruder and flank marking over a 10 min test period (Ferris and Potegal, 1988). Flank marking is a form of olfactory communication in which a hamsters arches its back and rubs pheromone producing flank glands against objects in the environment (Johnson, 1986).
Parametric data, i.e., latencies and contact time, were analyzed with a one-way ANOVA followed by Newman-Keuls post hoc tests. Non parametric data, i.e., number of bites and flank marks, were analyzed with Kruskal-Wallis tests followed by Mann-Whitney U tests to determine differences between groups. Two sample comparisons were analyzed with paired and unpaired t-Tests for parametric data and Wilcoxon and Mann-Whitney Tests for paired and unpaired non-parametric data, respectively.
as §2, with “by an” for “by the”, “an opponent; while,” for “an opponent, while”, “Potegal 1988) in the context of defending the home burrow.” for “Potegal 1988).”
as §3, with “Flank marking is a form of olfactory communication in which a hamsters arches its back and rubs pheromone producing flank glands against objects in the environment (Johnson, 1986).” left out

[1] = daily IP for seven days: CLAV 100 ng/kg, CDP 10 mg/kg
[2] = 50 μg/kg IP, 90 min, thirteen hamsters

O=C(O)[C@H]1/C(=C/CO)O[C@@H]2CC(=O)N21 [CLAV, Clavulanic acid]
open arm entries (Male Wistar rats; CLAV 1.0 μg/kg IP, 90 min): increased movement into the lighted open arms
time spent in the open arm (Male Wistar rats; CLAV 1.0 μg/kg IP, 90 min): significantly increased
latency to enter the dark (time in starting open light position) (Male Wistar rats; CLAV 1.0 μg/kg IP, 90 min, five min observation): longer
latency to enter the dark closed arms (Male Wistar rats; [1]): significantly greater
time spent exposed to light in the open arms (Male Wistar rats; [1]): significantly greater
contact time with the intruder (male golden hamsters; CLAV 200 μg/kg IP, 90 min): no significant main effect
flank marking (male golden hamsters; CLAV 200 μg/kg IP, 90 min): no significant effect
latency to bite the intruder (male golden hamsters; CLAV 200 μg/kg IP, 90 min, trend toward significance): no significant main effect
median number of bites (male golden hamsters; CLAV 200 μg/kg IP, 90 min, thirteen for vehicle): six
aggressive behavior (male golden hamsters; pilot studies, 1.0 μg/kg IP): no effect

CO[C@@]1(NC(=O)C(C(=O)O)c2ccc(O)cc2)C(=O)N2C(C(=O)O)=C(CSc3nnnn3C)CO[C@@H]21 (stereo partly drawn) [Mox, 7-β-[2-carboxy-2-(4-hydroxyphenyl)acetamido]-7α-methoxy-3-[[(1-methyl-1H-tetrazol-5-yl)thio]methyl]-1-oxa-1-dethia-3-cephem-4-carboxylic acid]
number of open arm entries (Male Wistar rats; 50 μg/kg IP, 90 min): significantly elevated
time spent in the closed arm (Male Wistar rats; 50 μg/kg IP, 90 min): significantly reduced
latency to enter the closed arm (Male Wistar rats; 50 μg/kg IP, 90 min, five min observation): significantly increased
time spent in the closed arm (dark) (Male Wistar rats; 1 mM, 2 ul into lateral ventricle, 60 min): significantly (p<0.01) lower
latency to enter the closed arm (Male Wistar rats; 1 mM, 2 ul into lateral ventricle, 60 min, 3 min observation): significantly (p<0.05) delayed
bite latency (male golden hamsters; [2]): significantly increased
contact time (male golden hamsters; [2]): no significant change
flank marking (male golden hamsters; [2]): no significant change
number of bites (male golden hamsters; [2]): reduced
contact time (male golden hamsters; 50 mg/kg IP, 90 min): significantly reduced
flank marking (male golden hamsters; 50 mg/kg IP, 90 min): did not reach significance
number of bites (male golden hamsters; 50 mg/kg IP, 90 min, 10 min observation): significantly reduced
mean latency to bite (male golden hamsters; 50 mg/kg IP, 90 min after treatment, 10 min observation, vs saline): over six
animals that never bite in the 10 min observation period (male golden hamsters; dose response, 50 μg): three of six
number of bites (male golden hamsters; dose response, 50 μg): significant reduction
delay of bite latency vs vehicle (male golden hamsters; dose response, 50 μg/kg): over seven
contact time (male golden hamsters; dose response, 500 μg and 5 mg): significantly reduced
bite latency (male golden hamsters; dose response, 500 μg and 5.0 mg): significantly increased
flank marking (male golden hamsters; dose response, 0.5-5000 μg/kg, between groups): not significantly different
behavioral measures of offensive aggression (male golden hamsters; dose response, doses of 5.0 μg and less): no effect
contact time (male golden hamsters; equimolar (90 μM) IP, 90 min): no significant treatment effect
flank marking (male golden hamsters; equimolar (90 μM) IP, 90 min): no significant treatment effect
number of bites (male golden hamsters; equimolar (90 μM) IP, 90 min): significantly reduced
latency to bite (male golden hamsters; equimolar (90 μM, equal to 50 μg/kg Mox) IP, 90 min): significantly delayed
